From US20240188561A1, “ADDITIVES FOR ENHANCING THE PESTICIDAL EFFECTIVENESS OF PESTICIDAL MICROORGANISMS” (priority 2021, published 2024)

Experiments:
[1] = tested on: Downy Mildew (Plasmopara viticola); experiment: Spray trial on first year grape vines, Downy Mildew infection; type: in vivo; conditions: in words
Protocol: Eight solutions were prepared as described in Table 2a. These solutions were sprayed on first year grape vines showing no signs of Downy Mildew (Plasmopara viticola). […] Six of the solutions included Additive Blend 1 (a 50:50 blend of POE 10 soybean oil and PEG 400 dioleate).
Four applications were made over a month to the same grape vines. At the end of the month, the infection rates of Downy Mildew were evaluated by comparing to untreated grape vines.
Eight solutions were prepared as described in Table 6a. These solutions were sprayed on first year grape vines showing no signs of Downy Mildew (Plasmopara viticola). […] Six of the solutions included PEG 400 dioleate.

Pseudomonas fluorescens = experiment: Additive compatibility with microbial growth (growth slope by OD 620 nm); type: cell-based; conditions: additive 0.01-5 %, exposed 4 hours at 16° C., then tryptic soy broth 30° C., slope compared to 0% sample
Bacillus subtilis = experiment: as above; type: cell-based; conditions: additive 0.01-5 %, exposed 4 hours at 16° C., then tryptic soy broth 30° C., slope compared to 0% sample
[2] = tested on: Bacillus amyloliquefaciens; experiment: as above; type: cell-based; conditions: additive 0.01-5 %, exposed 4 hours at 16° C., then tryptic soy broth 30° C., slope compared to 0% sample
Bacillus firmus = experiment: as above; type: cell-based; conditions: additive 0.01-5 %, exposed 4 hours at 16° C., then tryptic soy broth 30° C., slope compared to 0% sample
[3] = tested on: Powdery Mildew (Podosphaera xanthii); experiment: Spray trial on pumpkin plants, Powdery Mildew infection; type: in vivo; conditions: in words
Protocol: Eight solutions were prepared as described in Table 5a. These solutions were sprayed on pumpkin plants showing no signs of Powdery Mildew (Podosphaera xanthii). […] Six of the solutions included methyl soyate.
Four applications were made over a month to the same pumpkin plants. At the end of the month, the infection rates of Powdery Mildew were evaluated by comparing to untreated pumpkin plants.

PEG 400 dioleate [v-3] was tested, and the “Control of Downy Mildew (lower %-Infection) when additive was added to Serifel Biofungicide spray solutions” value [1] was “improved control”, the “Influence of additive on microbial growth slope (compatibility), Pseudomonas fluorescens” value (Pseudomonas fluorescens) was “E (E represents an Enhancing result)” and the “Influence of additive on microbial growth slope (compatibility), Bacillus subtilis” value (Bacillus subtilis) was “E (E represents an Enhancing result)”. For the same substance, the “Influence of additive on microbial growth slope (compatibility), Bacillus amyloliquefaciens” value [2] was “E (E represents an Enhancing result)” and the “Influence of additive on microbial growth slope (compatibility), Bacillus firmus” value (Bacillus firmus) was “E (E represents an Enhancing result)”.

For Sorbitan trioleate POE 20 [xii-4], the “Influence of additive on microbial growth slope (compatibility), Pseudomonas fluorescens” value (Pseudomonas fluorescens) was “S”, the “Influence of additive on microbial growth slope (compatibility), Bacillus subtilis” value (Bacillus subtilis) was “N” and the “Influence of additive on microbial growth slope (compatibility), Bacillus amyloliquefaciens” value [2] was “S”. For the same substance, the “Influence of additive on microbial growth slope (compatibility), Bacillus firmus” value (Bacillus firmus) was “S”.

With Soya fatty acid methyl ester [ii-3] the “Control of Powdery Mildew (lower %-Infection) when additive was added to Serifel Biofungicide spray solutions” value [3] was “improved control”, the “Influence of additive on microbial growth slope (compatibility), Pseudomonas fluorescens” value (Pseudomonas fluorescens) was “N” and the “Influence of additive on microbial growth slope (compatibility), Bacillus subtilis” value (Bacillus subtilis) was “N”. The “Influence of additive on microbial growth slope (compatibility), Bacillus amyloliquefaciens” value [2] was “E (E represents an Enhancing result)” and the “Influence of additive on microbial growth slope (compatibility), Bacillus firmus” value (Bacillus firmus) was “N”.

In the case of Soybean Oil POE 10 [vi-1], the “Influence of additive on microbial growth slope (compatibility), Pseudomonas fluorescens” value (Pseudomonas fluorescens) is reported as “E (E represents an Enhancing result)”, the “Influence of additive on microbial growth slope (compatibility), Bacillus subtilis” value (Bacillus subtilis) is reported as “N” and the “Influence of additive on microbial growth slope (compatibility), Bacillus amyloliquefaciens” value [2] is reported as “N”. The “Influence of additive on microbial growth slope (compatibility), Bacillus firmus” value (Bacillus firmus) was “S”.

With Soybean Oil POE 30 [vi-2] the “Influence of additive on microbial growth slope (compatibility), Pseudomonas fluorescens” value (Pseudomonas fluorescens) was “N”, the “Influence of additive on microbial growth slope (compatibility), Bacillus subtilis” value (Bacillus subtilis) was “S” and the “Influence of additive on microbial growth slope (compatibility), Bacillus amyloliquefaciens” value [2] was “S”. The “Influence of additive on microbial growth slope (compatibility), Bacillus firmus” value (Bacillus firmus) was “N”.

Tallow amine POE15 [xiii-1] was tested, and the “Influence of additive on microbial growth slope (compatibility), Pseudomonas fluorescens” value (Pseudomonas fluorescens) was “E (E represents an Enhancing result)”, the “Influence of additive on microbial growth slope (compatibility), Bacillus subtilis” value (Bacillus subtilis) was “S” and the “Influence of additive on microbial growth slope (compatibility), Bacillus amyloliquefaciens” value [2] was “S”. The “Influence of additive on microbial growth slope (compatibility), Bacillus firmus” value (Bacillus firmus) was “S”.

For Tridecyl alcohol POE 3 [xi-1], the “Influence of additive on microbial growth slope (compatibility), Pseudomonas fluorescens” value (Pseudomonas fluorescens) was “S”, the “Influence of additive on microbial growth slope (compatibility), Bacillus subtilis” value (Bacillus subtilis) was “S” and the “Influence of additive on microbial growth slope (compatibility), Bacillus amyloliquefaciens” value [2] was “S”. For the same substance, the “Influence of additive on microbial growth slope (compatibility), Bacillus firmus” value (Bacillus firmus) was “S”.

With Tridecyl alcohol POE 9 [xi-2] the “Influence of additive on microbial growth slope (compatibility), Pseudomonas fluorescens” value (Pseudomonas fluorescens) was “S”, the “Influence of additive on microbial growth slope (compatibility), Bacillus subtilis” value (Bacillus subtilis) was “S” and the “Influence of additive on microbial growth slope (compatibility), Bacillus amyloliquefaciens” value [2] was “S”. For the same substance, the “Influence of additive on microbial growth slope (compatibility), Bacillus firmus” value (Bacillus firmus) was “S”.

With “Tridecyl alcohol POE 10 phosphate ester [xix-1]” the “Influence of additive on microbial growth slope (compatibility), Pseudomonas fluorescens” value (Pseudomonas fluorescens) was “S”, the “Influence of additive on microbial growth slope (compatibility), Bacillus subtilis” value (Bacillus subtilis) was “S” and the “Influence of additive on microbial growth slope (compatibility), Bacillus amyloliquefaciens” value [2] was “S”. The “Influence of additive on microbial growth slope (compatibility), Bacillus firmus” value (Bacillus firmus) was “S”.
